Assay results from patent publication US10571448B2, “Method and system for comprehensive evaluation of organic compound and heavy metal pollution in water based on fish electrocardio” (priority 2018, dated 2020).

Key:
koi = experiment: 48 h semi-lethal concentration of heavy metal solutions for koi; conditions: recorded as 1 toxic unit (1 TU)
zebrafish [1] = experiment: 48 h medial lethal concentration of deltamethrin for zebrafish; type: in vivo; conditions: recorded as 1 toxic unit (1 TU)
From the text: Three zebrafishes were used in each exposed group.

zebrafish [2] = experiment: Zebrafish electro-cardio indexes under deltamethrin exposure, with Pearson correlation to environmental stress E; conditions: as concentration increased (0.52, 2, 2.6 μg/L), 0-48 h
Method: Fish electro-cardio signals respectively before and after the fish is exposed to a solution containing a specific organic compound are gathered by the real-time and miniaturized fish electro-cardio acquisition system, and various electro-cardio indexes are respectively extracted.
The correlation between environmental stress and respective extracted electro-cardio indexes is analyzed according to Pearson Correlation Analysis to select an electro-cardio index suitable for the assessment of water quality with respect to this specific organic compound.
A linear regression model between the environmental stress and respective electro-cardio indexes is analyzed and assessed according to Akaike Information Criterion and the sum of square error to finally obtain an electro-cardio index suitable for the assessment of water quality with respect to the specific organic compound.
In the present method, the real-time electro-cardio signals were acquired from multiple fishes respectively exposed to different concentrations of the specific organic compound. Firstly, the zebrafish was exposed to an organic solvent deltamethrin solution. […]
The acquired electro-cardiographs were subjected to filtering and interference removal to become clearer; the analyzed data was processed, and then was analyzed by Matlab software and SPSS software to estimate the electro-cardio changes based on data differences. […]

[Cl][Cd][Cl] [cadmium chloride]
48 h semi-lethal concentration (koi): 23.6 mg/L

CC1(C)[C@H](C(=O)O[C@H](C#N)c2cccc(Oc3ccccc3)c2)[C@@H]1C=C(Br)Br [deltamethrin]
48 h medial lethal concentration (zebrafish [1]): 5.2 µg/L | PR interval, QRS interval, ST interval and QT interval (zebrafish [2]): increased | amplitudes of P-wave, Q-wave, R-wave, S-wave and T-wave (zebrafish [2]): decreased

[Mn+2] [manganese]
48 h semi-lethal concentration (koi): 2.75 mg/L

[Cl][Hg][Cl] [mercury chloride]
48 h semi-lethal concentration (koi): 0.13 mg/L
